Results as given in patent publication EP2057188B1 (priority 2006, dated 2008).
Where two headings read alike, the source gives them in different places. Ends that are not written are not given here.

How the values were obtained:
[1] = type: in vivo, NIH/Swiss mice; conditions: 80 nmol/Kg; AUC240
Protocol: Gavage (1.5g/kg) was given at t=0. Sample was taken at t=30 min.

[2] = IVGTT duration of action assay, single SC injection; type: in vivo, rat; conditions: compared with 0601GIP3794 (794); @ -120 min
Protocol: In the typical IVGTT assays the test sample was administered by IV infusion. The IV infusion of sample was initiated at t = -30min and continued through t = 90. IV glucose was given at t = 0. To determine a duration of action using the IVGTT assay, the sample was injected SC as a single injection at one time point indicated (e.g., t = -240, -120, -60 or -30) prior to administration of glucose. IV glucose was given at t = 0.

[3] = type: in vivo, rats; design: AUC Change in Insulin Pre IVGTT / AUC Change in Insulin Post IVGTT: unit not given beside the values; conditions: for AUC Change in Insulin Post IVGTT / AUC Change in Insulin Pre IVGTT: rat, in vivo
[4] = cited from earlier work; for inhibition of gastric emptying: at doses of 100µg; for EC(50): inhibition of gastric emptying, subcutaneous
[5] = 100 pmol/kg/min infusion dose in rats

CC[C@H](C)[C@H](NC(=O)[C@H](CO)NC(=O)[C@H](Cc1ccc(O)cc1)NC(=O)[C@H](CC(=O)O)NC(=O)[C@H](CO)NC(=O)[C@@H](NC(=O)[C@H](Cc1ccccc1)NC(=O)[C@@H](NC(=O)CNC(=O)[C@H](CCC(=O)O)NC(=O)[C@@H](C)NC(=O)[C@@H](N)Cc1ccc(O)cc1)[C@@H](C)O)[C@@H](C)CC)C(=O)N[C@@H](C)C(=O)N[C@@H](CCSC)C(=O)N[C@@H](CC(=O)O)C(=O)N[C@@H](CCCCN)C(=O)N[C@H](C(=O)N[C@@H](Cc1c[nH]cn1)C(=O)N[C@@H](CCC(N)=O)C(=O)N[C@@H](CCC(N)=O)C(=O)N[C@@H](CC(=O)O)C(=O)N[C@@H](Cc1ccccc1)C(=O)N[C@H](C(=O)N[C@@H](CC(N)=O)C(=O)N[C@@H](Cc1c[nH]c2ccccc12)C(=O)N[C@@H](CC(C)C)C(=O)N[C@@H](CC(C)C)C(=O)N[C@@H](C)C(=O)N[C@@H](CCC(N)=O)C(=O)N[C@@H](CCCCN)C(=O)N1CCC[C@H]1C(=O)N[C@@H](CO)C(=O)N1CCC[C@H]1C(=O)N[C@@H](CCCCN)C(=O)N[C@@H](CCCCN)C(=O)N[C@H](C(=O)N[C@@H](CCCNC(=N)N)C(=O)N[C@@H](Cc1ccc(O)cc1)C(=O)N[C@@H](CO)C(N)=O)[C@@H](C)CC)C(C)C)[C@@H](C)CC [0601 GIP48 23]
Basal Glucose Lowering at 80 nmol/Kg [1]: -23%, AUC2240
Duration In The Rat IVGTT Assay [2]: <794@-120 min

CC[C@H](C)[C@H](NC(=O)[C@H](CO)NC(=O)[C@H](Cc1ccc(O)cc1)NC(=O)[C@H](CC(=O)O)NC(=O)[C@H](CO)NC(=O)[C@@H](NC(=O)[C@H](Cc1ccccc1)NC(=O)[C@@H](NC(=O)CNC(=O)[C@H](CCC(=O)O)NC(=O)[C@@H](C)NC(=O)[C@@H](N)Cc1ccc(O)cc1)[C@@H](C)O)[C@@H](C)CC)C(=O)N[C@@H](C)C(=O)N[C@@H](CC(C)C)C(=O)N[C@@H](CC(=O)O)C(=O)N[C@@H](CCCCN)C(=O)N[C@H](C(=O)N[C@@H](Cc1c[nH]cn1)C(=O)N[C@@H](CCC(N)=O)C(=O)N[C@@H](CCC(N)=O)C(=O)N[C@@H](CC(=O)O)C(=O)N[C@@H](Cc1ccccc1)C(=O)N[C@H](C(=O)N[C@@H](CC(N)=O)C(=O)N[C@@H](Cc1c[nH]c2ccccc12)C(=O)N[C@@H](CC(C)C)C(=O)N[C@@H](CC(C)C)C(=O)N[C@@H](C)C(=O)N[C@@H](CCC(N)=O)C(=O)N[C@@H](CCCCN)C(=O)N1CCC[C@H]1C(=O)N[C@@H](CCCCN)C(=O)N[C@@H](CCCCN)C(=O)N[C@H](C(=O)N[C@@H](CCCNC(=N)N)C(=O)N[C@@H](Cc1ccc(O)cc1)C(=O)N[C@@H](CO)C(N)=O)[C@@H](C)CC)C(C)C)[C@@H](C)CC [0601 GIP48 07]
Basal Glucose Lowering at 80 nmol/Kg [1]: -26%, AUC240
Duration In The Rat IVGTT Assay [2]: < 794 @-120 min

[dAla2, Leu14, beta-Ala31, beta-Ala32] GIP-(1-32)-Exendin-4 (31-39) [Compound 0601GIP4179]
Basal Glucose Lowering at 80 nmol/Kg [1]: -17%, AUC240
AUC Change in Insulin Post IVGTT [3]: 206.8+-30.1
AUC Change in Insulin Pre IVGTT [3]: 52.4+-9.6

octylglycine-GIP(1-30)-Exendin-4-(31-39) [Compound 0601GIP4178]
Basal Glucose Lowering at 80 nmol/Kg [1]: -13%, AUC240
insulin levels prior to the glucose challenge [3, 5]: significant rise in insulin levels
insulinotropic response to an intravenous glucose challenge [3, 5]: diminished insulinotropic response
AUC Change in Insulin Post IVGTT [3]: 106.6+-23.8
AUC Change in Insulin Pre IVGTT [3]: 18.5+-6.7

glucagon: peptide compared for inhibition of gastric emptying in conscious rats
inhibition of gastric emptying [4]: weakly active or inactive

somatostatin: peptide compared for inhibition of gastric emptying in conscious rats (AGCKNFFWKTFTSC; ends and bridges not checked; cysteine pairing not given here; UniProt P61278 103-116, looked up)
inhibition of gastric emptying [4]: weakly active or inactive

[dAla2]GIP-(1-30)-[Octylglycine 34] Exendin-4 (31-39) [Compound 0601GIP4252]
Basal Glucose Lowering at 80 nmol/Kg [1]: -7%, AUC240
AUC Change in Insulin Post IVGTT [3]: 1218.1+ -12.7
AUC Change in Insulin Pre IVGTT [3]: 11.9+-11.7

Rat CGRP: peptide compared for inhibition of gastric emptying in conscious rats (SCNTATCVTHRLAGLLSRSGGVVKDNFVPTNVGSEAF; ends and bridges not checked; cysteine pairing not given here; UniProt P01256 83-119, looked up)
EC(50) ([4]; conscious rats ~200g): 1.62 µg
EC(50) ([4]; conscious rats): 2.13 nmol/kg

Secretin: peptide compared for inhibition of gastric emptying in conscious rats
EC(50) ([4]; conscious rats ~200g): 1.87 µg
EC(50) ([4]; conscious rats): 3.09 nmol/kg

adrenomedullin: peptide compared for inhibition of gastric emptying in conscious rats (YRQSMNNFQGLRSFGCRFGTCTVQKLAHQIYQFTDKDKDNVAPRSKISPQGY; ends and bridges not checked; cysteine pairing not given here; UniProt P35318 95-146, looked up)
inhibition of gastric emptying [4]: weakly active or inactive

Rat calcitonin: peptide compared for inhibition of gastric emptying in conscious rats (CGNLSTCMLGTYTQDLNKFHTFPQTSIGVGAP; ends and bridges not checked; cysteine pairing not given here; UniProt P01257 85-116, looked up)
EC(50) ([4]; conscious rats ~200g): 0.64 µg
EC(50) ([4]; conscious rats): 0.94 nmol/kg

CSNLSTCVLGKLSQELHKLQTYPRTNTGSGTP [Salmon calcitonin]
EC(50) ([4]; conscious rats ~200g): 0.19 µg
EC(50) ([4]; conscious rats): 0.28 nmol/kg

CC[C@H](C)[C@H](NC(=O)[C@H](CO)NC(=O)[C@H](Cc1ccc(O)cc1)NC(=O)[C@H](CC(=O)O)NC(=O)[C@H](CO)NC(=O)[C@@H](NC(=O)[C@H](Cc1ccccc1)NC(=O)[C@@H](NC(=O)CNC(=O)[C@H](CCC(=O)O)NC(=O)[C@@H](C)NC(=O)[C@@H](N)Cc1ccc(O)cc1)[C@@H](C)O)[C@@H](C)CC)C(=O)N[C@@H](C)C(=O)N[C@@H](CCSC)C(=O)N[C@@H](CC(=O)O)C(=O)N[C@@H](CCCCN)C(=O)N[C@H](C(=O)N[C@@H](Cc1c[nH]cn1)C(=O)N[C@@H](CCC(N)=O)C(=O)N[C@@H](CCC(N)=O)C(=O)N[C@@H](CC(=O)O)C(=O)N[C@@H](Cc1ccccc1)C(=O)N[C@H](C(=O)N[C@@H](CC(N)=O)C(=O)N[C@@H](Cc1c[nH]c2ccccc12)C(=O)N[C@@H](CC(C)C)C(=O)N[C@@H](CC(C)C)C(=O)N[C@@H](C)C(=O)N[C@@H](CCC(N)=O)C(=O)N[C@@H](CCCCN)C(=O)N1CCC[C@H]1C(=O)N[C@@H](CCCCN)C(=O)N[C@@H](CCC(N)=O)C(=O)N[C@H](C(=O)N[C@@H](CCCNC(=N)N)C(=O)N[C@@H](Cc1ccc(O)cc1)C(=O)N[C@@H](CO)C(N)=O)[C@@H](C)CC)C(C)C)[C@@H](C)CC [0601 GIP48 54]
Duration In The Rat IVGTT Assay [2]: < 794@ -120 min

neuropeptide Y: peptide compared for inhibition of gastric emptying in conscious rats
inhibition of gastric emptying [4]: weakly active or inactive
